Test results published in ChEMBL document CHEMBL1201862, “PubChem BioAssay data set” (2004).
Active and inactive are the calls of the source.

What was measured:
[1] = target: Beta-adrenergic receptor kinase 1 (Homo sapiens, UniProt P25098); experiment: aptamer displacement from bead-bound GRK2 – biochemical, cherry pick 1, bead flow cytometry, dose response (AID 504500)
[2] = target: T1, Dual specificity protein phosphatase 3 (Homo sapiens, UniProt P51452); experiment: SAR VHR1 Fluorescent Assay for In Vitro dose response studies. [Related pubchem assays (depositor defined):AID1654, AID1661, AID1878, AID1992, AID2004, AID2070, AID2085]; type: functional
Cytochrome P450 1A2 = target: T2, Cytochrome P450 1A2 (Homo sapiens, UniProt P05177);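 also: PubChem cytochrome P450 panel assay, CYP1A2 panel member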
T2 sequence (P05177 whole entry): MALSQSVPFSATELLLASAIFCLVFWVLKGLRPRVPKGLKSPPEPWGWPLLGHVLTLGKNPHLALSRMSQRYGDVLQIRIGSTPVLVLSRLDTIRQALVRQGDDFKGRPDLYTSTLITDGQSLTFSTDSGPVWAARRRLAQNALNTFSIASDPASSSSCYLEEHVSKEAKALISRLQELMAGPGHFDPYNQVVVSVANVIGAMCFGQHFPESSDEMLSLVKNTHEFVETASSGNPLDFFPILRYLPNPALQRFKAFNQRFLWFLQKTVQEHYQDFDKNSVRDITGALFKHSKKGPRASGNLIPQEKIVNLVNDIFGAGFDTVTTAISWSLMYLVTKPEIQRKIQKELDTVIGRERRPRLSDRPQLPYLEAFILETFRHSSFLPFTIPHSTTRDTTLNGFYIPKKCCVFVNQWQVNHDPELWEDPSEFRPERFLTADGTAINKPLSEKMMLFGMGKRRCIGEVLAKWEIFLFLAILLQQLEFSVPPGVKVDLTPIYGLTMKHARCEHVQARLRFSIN

[3] = target: Glyceraldehyde-3-phosphate dehydrogenase (Homo sapiens, UniProt P04406)
[4] = target: Intestinal-type alkaline phosphatase (Homo sapiens, UniProt P09923); experiment: inhibition of human intestinal alkaline phosphatase – biochemical, dose response (AID 488876); type: functional
[5] = target: T3, Alkaline phosphatase, tissue-nonspecific isozyme (Homo sapiens, UniProt P05186); experiment: TNAP enzyme inhibition by screening hits, dose response, selectivity assay for mouse IAP inhibitor project, biochemical, human TNAP, uHTS hits (AID 488906); type: functional
T3 sequence (P05186 whole entry): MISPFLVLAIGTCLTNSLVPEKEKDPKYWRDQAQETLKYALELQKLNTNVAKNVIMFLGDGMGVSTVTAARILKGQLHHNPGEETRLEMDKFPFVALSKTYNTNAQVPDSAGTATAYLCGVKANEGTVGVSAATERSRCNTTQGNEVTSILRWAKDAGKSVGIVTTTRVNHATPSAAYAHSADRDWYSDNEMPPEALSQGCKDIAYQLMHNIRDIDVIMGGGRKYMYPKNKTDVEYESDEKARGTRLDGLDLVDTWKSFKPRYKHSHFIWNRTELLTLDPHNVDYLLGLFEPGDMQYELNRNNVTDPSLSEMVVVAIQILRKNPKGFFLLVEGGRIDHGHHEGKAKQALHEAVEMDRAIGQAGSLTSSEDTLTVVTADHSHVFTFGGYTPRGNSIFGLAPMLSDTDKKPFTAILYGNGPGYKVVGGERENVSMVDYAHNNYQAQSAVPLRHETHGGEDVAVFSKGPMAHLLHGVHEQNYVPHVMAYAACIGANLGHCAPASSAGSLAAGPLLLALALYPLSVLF

[6] = target: Induced myeloid leukemia cell differentiation protein Mcl-1 (Homo sapiens, UniProt Q07820); type: functional
[7] = target: T4, Dual specificity protein phosphatase 6 (Rattus norvegicus, UniProt Q64346)
T4 sequence (Q64346 whole entry): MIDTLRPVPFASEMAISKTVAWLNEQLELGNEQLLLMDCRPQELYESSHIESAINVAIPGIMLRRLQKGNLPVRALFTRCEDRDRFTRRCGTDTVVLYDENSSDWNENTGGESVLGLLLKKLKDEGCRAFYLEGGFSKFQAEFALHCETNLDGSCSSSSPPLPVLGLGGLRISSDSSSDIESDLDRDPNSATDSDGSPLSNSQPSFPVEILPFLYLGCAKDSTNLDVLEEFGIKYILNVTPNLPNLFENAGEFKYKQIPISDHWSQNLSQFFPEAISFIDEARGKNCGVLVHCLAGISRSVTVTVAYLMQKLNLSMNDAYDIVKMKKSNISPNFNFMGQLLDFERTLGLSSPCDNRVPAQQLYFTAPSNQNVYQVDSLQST

[8] = target: T4, Dual specificity protein phosphatase 6; type: functional
[9] = target: T5, Tyrosine-protein phosphatase non-receptor type 7 (Homo sapiens, UniProt P35236); type: functional
T5 sequence (P35236 whole entry): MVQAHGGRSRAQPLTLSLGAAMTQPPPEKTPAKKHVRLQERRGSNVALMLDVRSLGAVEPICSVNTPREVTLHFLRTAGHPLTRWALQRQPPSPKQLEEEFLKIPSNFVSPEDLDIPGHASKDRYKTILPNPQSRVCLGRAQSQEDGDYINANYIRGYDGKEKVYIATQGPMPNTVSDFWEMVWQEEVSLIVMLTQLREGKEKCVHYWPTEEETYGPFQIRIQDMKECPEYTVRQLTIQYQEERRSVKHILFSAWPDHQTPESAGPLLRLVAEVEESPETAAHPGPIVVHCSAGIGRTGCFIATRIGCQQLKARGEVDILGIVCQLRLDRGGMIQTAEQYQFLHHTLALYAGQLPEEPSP

[10] = target: Intestinal-type alkaline phosphatase (Mus musculus, UniProt P24822); experiment: PubChem AID 488785; type: functional
[11] = target: T5, Tyrosine-protein phosphatase non-receptor type 7; experiment: redox-dependent HePTP inhibition, mechanism study, biochemical, fluorescence (AID 2068); type: functional
[12] = target: T1, Dual specificity protein phosphatase 3; experiment: MOA VHR1 Fluorescent secondary assay for identification of redox-state modulating compounds. [Related pubchem assays (depositor defined):AID1654, AID1661, AID1878, AID1957]
Cytochrome P450 2C9 = Cytochrome P450 2C9 (Homo sapiens, UniProt P11712)
DNA topoisomerase = DNA topoisomerase (Yersinia pestis, UniProt A0A2S9PM60); experiment: Y. pestis Topo-I inhibitors, cleavage product readout, dose response, biochemical, cherry-pick (AID 588525)
[13] = target: Photoreceptor-specific nuclear receptor (Homo sapiens, UniProt Q9Y5X4); type: functional;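 also: potency for compounds that break the NR2E3 corepressor complex and count as activators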
[14] = HIV-1 Env-mediated cell fusion inhibitors, dose response, CCR5-tropic Env (AID 2279); type: functional
[15] = target: Peroxisome proliferator-activated receptor gamma/Nuclear receptor corepressor 2 (Homo sapiens, UniProt P37231+Q9Y618); type: functional
Insulin-degrading enzyme [16] = target: T6, Insulin-degrading enzyme (Homo sapiens, UniProt P14735); experiment: activators of recombinant IDE enzyme, dose response, counter-screen for IDE activator project, biochemical, fluorescence polarization (AID 588681)
T6 sequence (P14735 whole entry): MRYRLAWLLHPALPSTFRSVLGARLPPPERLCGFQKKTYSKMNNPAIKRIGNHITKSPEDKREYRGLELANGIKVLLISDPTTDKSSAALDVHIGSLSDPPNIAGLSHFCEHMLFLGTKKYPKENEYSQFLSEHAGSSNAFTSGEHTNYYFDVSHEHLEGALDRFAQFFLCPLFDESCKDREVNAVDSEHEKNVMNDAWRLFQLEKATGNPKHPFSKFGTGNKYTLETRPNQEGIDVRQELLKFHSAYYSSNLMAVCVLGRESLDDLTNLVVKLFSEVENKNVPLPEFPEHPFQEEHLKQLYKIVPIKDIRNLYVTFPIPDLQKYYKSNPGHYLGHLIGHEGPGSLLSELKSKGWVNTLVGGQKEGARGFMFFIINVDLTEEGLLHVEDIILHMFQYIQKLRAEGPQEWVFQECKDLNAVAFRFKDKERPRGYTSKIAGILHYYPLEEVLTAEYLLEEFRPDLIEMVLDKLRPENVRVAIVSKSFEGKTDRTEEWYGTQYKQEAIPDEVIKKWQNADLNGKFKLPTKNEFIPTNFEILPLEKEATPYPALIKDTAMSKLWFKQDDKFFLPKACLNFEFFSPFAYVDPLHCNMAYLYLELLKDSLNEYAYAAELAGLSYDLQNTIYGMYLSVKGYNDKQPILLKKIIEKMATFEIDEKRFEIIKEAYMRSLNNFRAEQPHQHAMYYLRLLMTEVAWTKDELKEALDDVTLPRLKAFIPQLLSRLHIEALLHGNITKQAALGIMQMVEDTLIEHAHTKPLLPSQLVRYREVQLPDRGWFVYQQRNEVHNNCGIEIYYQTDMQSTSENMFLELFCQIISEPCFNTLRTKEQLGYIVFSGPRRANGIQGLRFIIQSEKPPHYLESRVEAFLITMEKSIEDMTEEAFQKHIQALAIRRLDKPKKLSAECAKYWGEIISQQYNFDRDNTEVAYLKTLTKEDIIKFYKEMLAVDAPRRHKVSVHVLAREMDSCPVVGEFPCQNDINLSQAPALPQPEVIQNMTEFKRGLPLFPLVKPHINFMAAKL

HeLa = experiment: HeLa cell cytotoxicity, dose response, cytotoxicity control, 24 h, cherry-picked samples (AID 504726); type: functional, cell-based, Homo sapiens;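 also: potency for cytotoxicity as loss of luminescence signal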
[17] = target: T7, Rac GTPase-activating protein 1 (Homo sapiens, UniProt Q9H0H5); experiment: MgcRacGAP GTPase-activating activity inhibitors, confirmation, biochemical, ADP Hunter fluorescence, primary and confirmatory (AID 624330); type: functional
T7 sequence (Q9H0H5 whole entry): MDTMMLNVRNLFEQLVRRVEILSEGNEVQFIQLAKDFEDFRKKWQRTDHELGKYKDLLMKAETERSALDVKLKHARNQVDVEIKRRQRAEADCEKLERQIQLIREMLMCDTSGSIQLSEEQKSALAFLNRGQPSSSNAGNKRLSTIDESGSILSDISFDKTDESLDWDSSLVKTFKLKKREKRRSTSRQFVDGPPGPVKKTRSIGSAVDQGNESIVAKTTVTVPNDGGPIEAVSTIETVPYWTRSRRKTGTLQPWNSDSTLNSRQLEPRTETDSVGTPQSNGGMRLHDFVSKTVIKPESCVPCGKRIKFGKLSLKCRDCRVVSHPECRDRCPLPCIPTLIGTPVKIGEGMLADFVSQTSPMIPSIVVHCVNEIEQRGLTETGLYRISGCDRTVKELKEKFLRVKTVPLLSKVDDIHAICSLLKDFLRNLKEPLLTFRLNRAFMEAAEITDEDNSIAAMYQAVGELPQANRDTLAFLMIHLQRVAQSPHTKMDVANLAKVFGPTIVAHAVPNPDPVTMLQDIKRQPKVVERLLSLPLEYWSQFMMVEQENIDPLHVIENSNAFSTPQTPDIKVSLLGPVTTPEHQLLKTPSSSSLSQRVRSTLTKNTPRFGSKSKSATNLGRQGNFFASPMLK

ORF 73 = ORF 73 (Human herpesvirus 8, UniProt O40947); experiment: inhibitors of C-LANA binding to LBS DNA, dose response, biochemical, fluorescence polarization, cherry-picked samples (AID 504725); parameters: species or system Human gammaherpesvirus 8;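 also: fluorescence polarization of a labeled DNA duplex reporting LANA DNA binding; potency is for inhibitors that block LANA binding to the DNA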
[18] = target: T8, Tyrosyl-DNA phosphodiesterase 2 (Homo sapiens, UniProt O95551); experiment: human TDP2 enzyme inhibitors, dose response, biochemical, epi absorbance, IC50 (AID 743297)
T8 sequence (O95551 whole entry): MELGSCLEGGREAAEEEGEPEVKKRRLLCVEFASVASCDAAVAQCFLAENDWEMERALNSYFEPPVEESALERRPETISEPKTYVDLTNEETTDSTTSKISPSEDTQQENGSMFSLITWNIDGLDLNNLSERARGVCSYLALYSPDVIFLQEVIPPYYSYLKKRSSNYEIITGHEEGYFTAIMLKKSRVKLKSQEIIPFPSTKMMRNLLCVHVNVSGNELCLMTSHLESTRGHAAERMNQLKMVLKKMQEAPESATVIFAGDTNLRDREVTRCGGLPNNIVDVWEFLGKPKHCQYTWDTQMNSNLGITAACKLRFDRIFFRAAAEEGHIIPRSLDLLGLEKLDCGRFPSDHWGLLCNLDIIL

Insulin-degrading enzyme [19] = target: T6, Insulin-degrading enzyme; experiment: activators of endogenous IDE in HEK cells, dose response, cell-based, fluorescence polarization (AID 588439); type: functional
HEK293 = experiment: HEK cell cytotoxicity by LDH release, dose response, cytotoxicity control for IDE activator project, fluorescence, HEK cells (AID 588440); type: functional, cell-based; settings: Homo sapiens;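 also: cytotoxicity by LDH release measuring loss of membrane integrity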
Phospholipase D1 = Phospholipase D1 (Homo sapiens, UniProt Q13393); experiment: PLD1 inhibitor potency in cells, dose response (AID 602151); type: functional;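 also: cellular PLD1 assay in Calu-1 cells stimulated with PMA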
Phospholipase D2 = Phospholipase D2 (Homo sapiens, UniProt O14939); experiment: PLD2 inhibitor potency in cells, dose response (AID 602147); type: functional;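 also: cellular assay in HEK293 cells overexpressing GFP-tagged PLD2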
Phospholipase A2 = Phospholipase A2 (Homo sapiens, UniProt P04054); type: functional;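 also: confirmatory dose-response counterscreen on phospholipase A2, testing hits that came from an ultra-high-throughput screen for ATG4B inhibitors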
Cysteine protease ATG4B = Cysteine protease ATG4B (Homo sapiens, UniProt Q9Y4P1); type: functional;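 also: Fluorescence-based dose-response confirmation assay measuring inhibition of ATG4B activity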
cells = type: functional

T1 sequence (P51452 whole entry): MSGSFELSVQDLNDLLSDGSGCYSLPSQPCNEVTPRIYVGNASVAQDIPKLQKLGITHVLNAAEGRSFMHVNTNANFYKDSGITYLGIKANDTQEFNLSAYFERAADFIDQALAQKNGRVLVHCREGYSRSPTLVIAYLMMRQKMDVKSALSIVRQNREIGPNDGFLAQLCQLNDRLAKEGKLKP
Chain of Glyceraldehyde-3-phosphate dehydrogenase (P04406 whole entry): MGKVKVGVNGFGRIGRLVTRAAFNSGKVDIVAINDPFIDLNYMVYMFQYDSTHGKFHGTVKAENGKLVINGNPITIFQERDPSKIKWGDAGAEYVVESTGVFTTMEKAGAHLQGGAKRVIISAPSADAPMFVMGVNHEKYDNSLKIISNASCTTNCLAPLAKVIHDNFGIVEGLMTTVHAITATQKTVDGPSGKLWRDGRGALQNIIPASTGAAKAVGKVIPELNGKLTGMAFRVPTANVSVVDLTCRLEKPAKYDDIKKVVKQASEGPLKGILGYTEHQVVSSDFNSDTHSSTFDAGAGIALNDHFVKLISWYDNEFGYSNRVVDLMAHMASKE
Chain of Photoreceptor-specific nuclear receptor (Q9Y5X4 whole entry, the tested form may be a part): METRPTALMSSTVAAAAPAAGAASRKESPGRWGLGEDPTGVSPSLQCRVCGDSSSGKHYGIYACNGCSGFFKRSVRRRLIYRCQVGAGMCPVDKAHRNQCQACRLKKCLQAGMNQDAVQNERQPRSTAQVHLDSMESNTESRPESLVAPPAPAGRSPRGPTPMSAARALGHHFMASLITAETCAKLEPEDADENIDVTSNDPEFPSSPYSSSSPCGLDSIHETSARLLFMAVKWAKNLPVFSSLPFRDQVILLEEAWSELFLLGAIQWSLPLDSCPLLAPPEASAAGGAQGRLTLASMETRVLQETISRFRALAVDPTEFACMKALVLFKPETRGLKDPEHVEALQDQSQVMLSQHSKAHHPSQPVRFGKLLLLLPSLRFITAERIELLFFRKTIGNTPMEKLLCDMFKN
Chain of Phospholipase A2 (P04054 whole entry): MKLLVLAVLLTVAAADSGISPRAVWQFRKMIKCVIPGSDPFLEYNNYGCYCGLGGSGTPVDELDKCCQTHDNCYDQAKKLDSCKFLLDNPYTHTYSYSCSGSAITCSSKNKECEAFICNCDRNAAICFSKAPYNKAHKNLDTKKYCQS
Chain of Beta-adrenergic receptor kinase 1 (P25098 whole entry): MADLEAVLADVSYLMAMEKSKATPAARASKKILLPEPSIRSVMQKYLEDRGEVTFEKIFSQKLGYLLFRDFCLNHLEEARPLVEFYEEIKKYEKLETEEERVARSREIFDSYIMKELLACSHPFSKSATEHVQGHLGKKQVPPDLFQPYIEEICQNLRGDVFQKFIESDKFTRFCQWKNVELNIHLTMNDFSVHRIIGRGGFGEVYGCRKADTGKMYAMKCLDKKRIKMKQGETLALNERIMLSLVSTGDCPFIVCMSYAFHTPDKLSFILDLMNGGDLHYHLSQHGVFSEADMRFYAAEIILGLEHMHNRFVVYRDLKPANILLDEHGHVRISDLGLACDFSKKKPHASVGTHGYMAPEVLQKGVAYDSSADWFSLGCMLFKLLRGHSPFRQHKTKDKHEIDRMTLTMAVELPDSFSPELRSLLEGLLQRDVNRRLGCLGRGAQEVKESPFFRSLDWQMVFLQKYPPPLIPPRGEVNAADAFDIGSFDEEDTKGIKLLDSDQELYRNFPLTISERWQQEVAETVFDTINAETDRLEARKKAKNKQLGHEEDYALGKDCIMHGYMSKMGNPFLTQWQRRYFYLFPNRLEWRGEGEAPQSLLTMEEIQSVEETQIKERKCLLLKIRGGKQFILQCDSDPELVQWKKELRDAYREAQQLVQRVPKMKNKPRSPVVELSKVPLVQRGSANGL
Chain of Induced myeloid leukemia cell differentiation protein Mcl-1 (Q07820 whole entry): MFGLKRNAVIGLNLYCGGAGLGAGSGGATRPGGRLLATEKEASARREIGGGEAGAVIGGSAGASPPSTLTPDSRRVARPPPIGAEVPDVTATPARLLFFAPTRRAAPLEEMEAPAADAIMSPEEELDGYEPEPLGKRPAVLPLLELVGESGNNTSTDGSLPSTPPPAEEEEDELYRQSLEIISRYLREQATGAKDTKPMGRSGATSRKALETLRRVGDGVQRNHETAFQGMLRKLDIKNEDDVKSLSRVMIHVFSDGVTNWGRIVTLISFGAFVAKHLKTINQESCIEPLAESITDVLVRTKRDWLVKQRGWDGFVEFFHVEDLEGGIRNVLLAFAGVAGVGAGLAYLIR
Chain of Phospholipase D2 (O14939 whole entry): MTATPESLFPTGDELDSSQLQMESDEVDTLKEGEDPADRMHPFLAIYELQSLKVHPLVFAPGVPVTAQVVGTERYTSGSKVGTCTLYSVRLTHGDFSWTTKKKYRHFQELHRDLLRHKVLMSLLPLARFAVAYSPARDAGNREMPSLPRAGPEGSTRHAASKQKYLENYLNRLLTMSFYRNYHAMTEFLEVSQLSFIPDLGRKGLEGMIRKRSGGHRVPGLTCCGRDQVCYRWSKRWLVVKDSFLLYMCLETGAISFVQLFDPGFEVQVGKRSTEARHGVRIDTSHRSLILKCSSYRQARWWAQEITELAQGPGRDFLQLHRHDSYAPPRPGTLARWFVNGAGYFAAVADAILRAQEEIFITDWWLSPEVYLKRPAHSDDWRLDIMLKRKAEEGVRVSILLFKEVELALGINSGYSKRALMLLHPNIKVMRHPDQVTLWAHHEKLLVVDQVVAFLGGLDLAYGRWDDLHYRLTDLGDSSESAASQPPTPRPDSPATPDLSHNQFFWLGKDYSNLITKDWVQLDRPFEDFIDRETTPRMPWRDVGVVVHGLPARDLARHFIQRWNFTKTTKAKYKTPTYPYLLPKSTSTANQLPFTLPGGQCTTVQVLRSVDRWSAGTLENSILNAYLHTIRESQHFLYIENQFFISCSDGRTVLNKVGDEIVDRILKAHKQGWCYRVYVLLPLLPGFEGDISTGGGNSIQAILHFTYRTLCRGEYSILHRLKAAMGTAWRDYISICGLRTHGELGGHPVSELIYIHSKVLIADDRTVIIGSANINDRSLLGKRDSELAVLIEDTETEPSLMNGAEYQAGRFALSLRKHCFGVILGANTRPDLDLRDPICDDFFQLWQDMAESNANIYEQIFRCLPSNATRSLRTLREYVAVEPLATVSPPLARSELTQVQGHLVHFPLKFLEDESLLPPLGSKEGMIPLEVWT
Chain of Intestinal-type alkaline phosphatase (Homo sapiens, UniProt P09923) (P09923 whole entry): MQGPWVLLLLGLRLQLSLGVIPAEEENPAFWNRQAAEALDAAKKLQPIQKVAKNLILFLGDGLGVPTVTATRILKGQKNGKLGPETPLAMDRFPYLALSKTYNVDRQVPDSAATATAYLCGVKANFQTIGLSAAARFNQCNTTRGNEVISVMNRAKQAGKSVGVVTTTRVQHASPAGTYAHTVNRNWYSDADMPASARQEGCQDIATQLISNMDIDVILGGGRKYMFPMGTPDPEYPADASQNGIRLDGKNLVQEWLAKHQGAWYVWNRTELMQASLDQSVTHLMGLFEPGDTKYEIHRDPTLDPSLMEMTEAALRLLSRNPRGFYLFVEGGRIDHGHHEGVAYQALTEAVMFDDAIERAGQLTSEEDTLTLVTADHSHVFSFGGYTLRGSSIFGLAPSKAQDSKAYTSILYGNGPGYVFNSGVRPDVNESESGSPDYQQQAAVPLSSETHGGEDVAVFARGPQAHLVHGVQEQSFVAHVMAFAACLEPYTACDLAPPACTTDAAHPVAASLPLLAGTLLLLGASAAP
Chain of Phospholipase D1 (Q13393 whole entry): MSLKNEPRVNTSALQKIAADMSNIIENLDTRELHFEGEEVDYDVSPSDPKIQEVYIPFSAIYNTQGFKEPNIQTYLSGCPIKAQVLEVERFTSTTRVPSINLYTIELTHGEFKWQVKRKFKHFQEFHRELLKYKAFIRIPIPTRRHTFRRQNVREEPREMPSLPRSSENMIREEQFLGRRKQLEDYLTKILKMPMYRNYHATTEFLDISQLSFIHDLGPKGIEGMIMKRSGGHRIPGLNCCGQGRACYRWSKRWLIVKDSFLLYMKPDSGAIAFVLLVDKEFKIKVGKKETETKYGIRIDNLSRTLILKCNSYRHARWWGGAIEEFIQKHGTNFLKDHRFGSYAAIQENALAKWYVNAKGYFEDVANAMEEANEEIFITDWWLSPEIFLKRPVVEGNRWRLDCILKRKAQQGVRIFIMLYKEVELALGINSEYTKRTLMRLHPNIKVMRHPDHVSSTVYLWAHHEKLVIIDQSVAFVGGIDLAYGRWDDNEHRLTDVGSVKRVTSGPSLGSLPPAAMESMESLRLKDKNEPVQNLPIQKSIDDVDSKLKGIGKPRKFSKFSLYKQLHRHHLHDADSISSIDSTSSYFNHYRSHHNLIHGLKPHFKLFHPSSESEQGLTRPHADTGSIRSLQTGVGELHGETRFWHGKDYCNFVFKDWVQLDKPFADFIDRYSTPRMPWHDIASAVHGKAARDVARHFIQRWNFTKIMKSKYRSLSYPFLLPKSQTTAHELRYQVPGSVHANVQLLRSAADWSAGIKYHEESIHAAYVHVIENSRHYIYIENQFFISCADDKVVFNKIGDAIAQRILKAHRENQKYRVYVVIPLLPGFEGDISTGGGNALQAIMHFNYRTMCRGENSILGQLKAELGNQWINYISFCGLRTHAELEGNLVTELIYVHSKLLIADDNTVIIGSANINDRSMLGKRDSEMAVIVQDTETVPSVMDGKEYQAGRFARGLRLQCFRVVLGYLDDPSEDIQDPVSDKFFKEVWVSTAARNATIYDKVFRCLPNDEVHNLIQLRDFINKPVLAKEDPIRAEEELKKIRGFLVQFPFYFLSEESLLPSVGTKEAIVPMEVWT

For O=C(O)c1ccccc1-c1ccc(/C=c2\sc3nc4cc(Br)cnc4n3c2=O)o1, the EC50 [1] was 2.39 µM (active), the IC50 [2] was 1.25 µM (active) and the AC50 (Cytochrome P450 1A2) was 17.8 µM (inconclusive). The IC50 [3] was 2.31 µM (active), the IC50 [4] was > 100 µM (inactive) and the IC50 [5] was 31.7 µM (active). The IC50 [6] was 3.32 µM (active), the IC50 [7] was 6.8 µM (active) and the IC50 [8] was 4.92 µM (active). The IC50 [9] was 1.26 µM (active), the IC50 [10] was 6.36 µM (active) and the IC50 [11] was 0.159 µM (active). For the same molecule, the IC50 [12] was 0.308 µM (active) and the AC50 (Cytochrome P450 2C9) was 20 µM (inconclusive).

In the case of Cc1cc(N2C(=O)C(O)=C(C(=O)c3cc4ccccc4o3)C2c2cccc(Br)c2)no1 (stereo not given), the AC50 (DNA topoisomerase) is reported as 3.24 µM (active), the IC50 [13] is reported as > 39.8 µM (not active) and the IC50 [14] is reported as > 50 µM (active). The IC50 [15] was 1.97 µM (active).

For C[n+]1c2cc(N)ccc2cc2ccc(N)cc21, the EC50 (Insulin-degrading enzyme [16]) was > 54.7 µM (inactive), the AC50 (HeLa) was 7.94 µM (active) and the IC50 [17] was 97.5 µM (active). For the same molecule, the AC50 (ORF 73) was 0.285 µM (active), the IC50 [18] was > 128 µM (inactive) and the EC50 (Insulin-degrading enzyme [19]) was > 54.7 µM (inactive). The IC50 (HEK293) was > 89.2 µM (inactive).

With C[C@@H](CN1CCC(n2c(=O)[nH]c3cc(I)ccc32)CC1)NC(=O)c1ccc(Cl)cc1 the IC50 (Phospholipase D1) was 0.016 µM (active) and the IC50 (Phospholipase D2) was 2.4 µM (active).

For O=[N+]([O-])c1cc2oc3c(c2c(/C=N/Cc2ccccc2)c1O)CCCC3, the IC50 (Phospholipase A2) was 0.502 µM (active), the IC50 (Cysteine protease ATG4B) was 1.28 µM (active) and the IC50 (cells) was 20.6 µM (active).
